According to article PMC5513091, “A novel Alzheimer’s disease drug candidate targeting inflammation and fatty acid metabolism” (Alzheimer's Research & Therapy, 2017):

System: cortex metabolites
Assay: Metabolomic analysis of cortex
Format: in vivo, mice
Procedure: Metabolomic analyses were conducted at Metabolon (Durham, NC, USA) as described previously. For statistical analyses and data display, any missing values were assumed to be below the limits of detection and imputed with the compound minimum (minimum value imputation). An estimate of the FDR (Q value) was calculated to take into account the multiple comparisons that normally occur in metabolomics-based studies, with Q < 0.05 used as an indication of high confidence in a result. The MetaboAnalyst tool was used to generate heat maps.

For `Cc1ccc(N(/N=C/c2cccc(OC(F)(F)F)c2)C(=O)C(F)(F)F)c(C)c1` [CAD-31], which monoacylglycerols in brain (AD mice, only significant drug effect) is on record?
Its monoacylglycerols in brain is “an increase in monoacylglycerols”.

And the “Long-chain fatty acids and monoacylglycerols in brain” value (WT mice)?
The value was “decreased”.

What about the “acetyl-CoA, ketone bodies, and acyl carnitines in brain” value (WT mice) of the same compound?
The value was “increased”.

What about the “ergothioneine Fold Change” value (cortex, AD+31/AD, p-value 8.4373e-5) of the same compound?
The value was 0.57.

And the “N-acetylalanine Fold Change” value (cortex, AD+31/AD, p-value 0.0006)?
Its value is 0.84.

And the “glycerate Fold Change” value (cortex, AD+31/AD, p-value 0.0086)?
The value was 0.65.

And the “2-oleoylglycerol (18:1) Fold Change” value (cortex, AD+31/AD, p-value 0.0105)?
The value was 1.51.

And the “1-palmitoylglycerol (16:0) Fold Change” value (cortex, AD+31/AD, p-value 0.0153)?
Its value is 1.41.

And the “2-methylcitrate/homocitrate Fold Change” value (cortex, AD+31/AD, p-value 0.0221)?
Its value is 1.13.

And the “hypoxanthine Fold Change” value (cortex, AD+31/AD, p-value 0.0231)?
Its value is 0.89.

And the “N-acetylneuraminate Fold Change” value (cortex, AD+31/AD, p-value 0.0277)?
Its value is 0.85.

What about the “2-palmitoylglycerol (16:0) Fold Change” value (cortex, AD+31/AD, p-value 0.031) of the same compound?
The value was 1.57.

And the “1-palmitoyl-GPG (16:0)* Fold Change” value (cortex, AD+31/AD, p-value 0.0317)?
The value was 1.85.

And the “azelate (nonanedioate) Fold Change” value (cortex, AD+31/AD, p-value 0.0374)?
The value was 0.73.

And the “ribose Fold Change” value (cortex, AD+31/AD, p-value 0.0378)?
Its value is 0.84.

What about the “arachidate (20:0) Fold Change” value (cortex, AD+31/AD, p-value 0.0406) of the same compound?
The value was 1.47.

What about the “N-delta-acetylornithine Fold Change” value (cortex, AD+31/AD, p-value 0.0407) of the same compound?
The value was 1.32.

What about the “3-sulfo-nervonoyl-galactosylceramide (d18:1/24:1) Fold Change” value (cortex, AD+31/AD, p-value 0.0443) of the same compound?
The value was 1.08.

And the “1-oleoylglycerol (18:1) Fold Change” value (cortex, AD+31/AD, p-value 0.0513)?
The value was 1.46.

What about the “1-stearoyl-GPG (18:0) Fold Change” value (cortex, AD+31/AD, p-value 0.055) of the same compound?
The value was 1.87.

And the “N-acetylglutamate Fold Change” value (cortex, AD+31/AD, p-value 0.0559)?
Its value is 0.92.

And the “linoleoyl ethanolamide Fold Change” value (cortex, AD+31/AD, p-value 0.0645)?
Its value is 1.62.

What about the “N-acetylglucosaminylasparagine Fold Change” value (cortex, AD+31/AD, p-value 0.0691) of the same compound?
The value was 0.92.

What about the “tricosenoate (23:1) Fold Change” value (cortex, AD+31/AD, p-value 0.0711) of the same compound?
Its value is 1.54.

And the “2'-deoxycytidine Fold Change” value (cortex, AD+31/AD, p-value 0.088)?
The value was 0.85.

And the “nonadecanoate (19:0) Fold Change” value (cortex, AD+31/AD, p-value 0.0981)?
Its value is 1.35.

What about the “palmitate (16:0) Fold Change” value (cortex, AD+31/AD, p-value 0.1021) of the same compound?
The value was 1.36.

What about the “erucate (22:1n9) Fold Change” value (cortex, AD+31/AD, p-value 0.1047) of the same compound?
Its value is 1.44.

What about the “5-methylthioadenosine (MTA) Fold Change” value (cortex, AD+31/AD, p-value 0.1124) of the same compound?
Its value is 1.12.

What about the “stearate (18:0) Fold Change” value (cortex, AD+31/AD, p-value 0.1164) of the same compound?
Its value is 1.35.

And the “eicosenoate (20:1) Fold Change” value (cortex, AD+31/AD, p-value 0.1281)?
Its value is 1.43.

And the “oleate/vaccenate (18:1) Fold Change” value (cortex, AD+31/AD, p-value 0.1397)?
The value was 1.39.

What about the “adrenate (22:4n6) Fold Change” value (cortex, AD+31/AD, p-value 0.1408) of the same compound?
The value was 1.56.

And the “1-oleoyl-2-linoleoyl-GPC (18:1/18:2)* Fold Change” value (cortex, AD+31/AD, p-value 0.1443)?
The value was 1.12.

And the “glutamate, gamma-methyl ester Fold Change” value (cortex, AD+31/AD, p-value 0.157)?
The value was 0.73.

What about the “docosadienoate (22:2n6) Fold Change” value (cortex, AD+31/AD, p-value 0.1608) of the same compound?
The value was 1.38.

And the “beta-citrylglutamate Fold Change” value (cortex, AD+31/AD, p-value 0.1678)?
The value was 1.19.

And the “methylphosphate Fold Change” value (cortex, AD+31/AD, p-value 0.1679)?
The value was 1.13.

And the “pyroglutamine* Fold Change” value (cortex, AD+31/AD, p-value 0.1791)?
The value was 1.11.

And the “glycerophosphoglycerol Fold Change” value (cortex, AD+31/AD, p-value 0.1865)?
Its value is 0.93.

What about the “dihomo-linoleate (20:2n6) Fold Change” value (cortex, AD+31/AD, p-value 0.1892) of the same compound?
Its value is 1.35.

What about the “docosatrienoate (22:3n3) Fold Change” value (cortex, AD+31/AD, p-value 0.1893) of the same compound?
Its value is 1.69.

What about the “arabinose Fold Change” value (cortex, AD+31/AD, p-value 0.2015) of the same compound?
The value was 0.93.

And the “UDP-glucose Fold Change” value (cortex, AD+31/AD, p-value 0.209)?
Its value is 1.28.

What about the “UDP-N-acetylglucosamine/galactosamine Fold Change” value (cortex, AD+31/AD, p-value 0.2104) of the same compound?
Its value is 0.95.

What about the “1-palmitoyl-2-gamma-linolenoyl-GPC (16:0/18:3n6)* Fold Change” value (cortex, AD+31/AD, p-value 0.213) of the same compound?
The value was 0.91.

And the “1-arachidonylglycerol (20:4) Fold Change” value (cortex, AD+31/AD, p-value 0.2257)?
The value was 1.2.

What about the “hippurate Fold Change” value (cortex, AD+31/AD, p-value 0.2339) of the same compound?
The value was 1.5.

And the “mead acid (20:3n9) Fold Change” value (cortex, AD+31/AD, p-value 0.2367)?
The value was 1.39.

And the “2-hydroxydecanoate Fold Change” value (cortex, AD+31/AD, p-value 0.2531)?
Its value is 0.84.

And the “glycerol 3-phosphate Fold Change” value (cortex, AD+31/AD, p-value 0.2532)?
Its value is 0.91.

What about the “10-nonadecenoate (19:1n9) Fold Change” value (cortex, AD+31/AD, p-value 0.2636) of the same compound?
The value was 1.26.

What about the “methionine Fold Change” value (cortex, AD+31/AD, p-value 0.2665) of the same compound?
The value was 1.1.

And the “1-docosahexaenoylglycerol (22:6) Fold Change” value (cortex, AD+31/AD, p-value 0.2822)?
Its value is 1.21.

What about the “3-hydroxy-3-methylglutarate Fold Change” value (cortex, AD+31/AD, p-value 0.2908) of the same compound?
Its value is 0.95.

What about the “anserine Fold Change” value (cortex, AD+31/AD, p-value 0.2924) of the same compound?
Its value is 1.14.

And the “N-formylmethionine Fold Change” value (cortex, AD+31/AD, p-value 0.3078)?
The value was 0.94.

And the “3-hydroxybutyrylcarnitine (2) Fold Change” value (cortex, AD+31/AD, p-value 0.3124)?
Its value is 1.37.

And the “acetylphosphate Fold Change” value (cortex, AD+31/AD, p-value 0.3359)?
Its value is 0.91.

And the “1-methylimidazoleacetate Fold Change” value (cortex, AD+31/AD, p-value 0.3448)?
The value was 0.9.

What about the “N-acetylmethionine Fold Change” value (cortex, AD+31/AD, p-value 0.3576) of the same compound?
Its value is 0.96.

And the “arachidonoyl ethanolamide Fold Change” value (cortex, AD+31/AD, p-value 0.3632)?
Its value is 1.06.

What about the “deoxycarnitine Fold Change” value (cortex, AD+31/AD, p-value 0.3877) of the same compound?
The value was 0.94.

And the “palmitoylcholine Fold Change” value (cortex, AD+31/AD, p-value 0.42)?
Its value is 1.09.

What about the “putrescine Fold Change” value (cortex, AD+31/AD, p-value 0.4207) of the same compound?
The value was 1.08.

What about the “adenosine 5'-diphosphoribose (ADP-ribose) Fold Change” value (cortex, AD+31/AD, p-value 0.4258) of the same compound?
The value was 0.94.

What about the “margarate (17:0) Fold Change” value (cortex, AD+31/AD, p-value 0.4323) of the same compound?
Its value is 1.24.

And the “phenol sulfate Fold Change” value (cortex, AD+31/AD, p-value 0.4423)?
Its value is 1.28.

And the “acetylcarnitine Fold Change” value (cortex, AD+31/AD, p-value 0.4578)?
The value was 1.25.

And the “lactate Fold Change” value (cortex, AD+31/AD, p-value 0.4961)?
Its value is 1.08.

And the “acetyl CoA Fold Change” value (cortex, AD+31/AD, p-value 0.4998)?
The value was 1.33.

What about the “3-hydroxybutyrate (BHBA) Fold Change” value (cortex, AD+31/AD, p-value 0.5074) of the same compound?
The value was 1.29.

And the “2-hydroxystearate Fold Change” value (cortex, AD+31/AD, p-value 0.5156)?
Its value is 1.2.

What about the “gamma-glutamylhistidine Fold Change” value (cortex, AD+31/AD, p-value 0.5232) of the same compound?
Its value is 0.9.

And the “gulonate* Fold Change” value (cortex, AD+31/AD, p-value 0.5547)?
The value was 0.96.

What about the “1-oleoyl-2-arachidonoyl-GPI (18:1/20:4) * Fold Change” value (cortex, AD+31/AD, p-value 0.5635) of the same compound?
The value was 1.02.

And the “6-phosphogluconate Fold Change” value (cortex, AD+31/AD, p-value 0.6142)?
The value was 0.86.

What about the “adenosine 2'-monophosphate (2'-AMP) Fold Change” value (cortex, AD+31/AD, p-value 0.6144) of the same compound?
Its value is 1.09.

And the “glucosamine-6-phosphate Fold Change” value (cortex, AD+31/AD, p-value 0.6542)?
The value was 1.06.

And the “1-palmitoyl-2-palmitoleoyl-GPC (16:0/16:1)* Fold Change” value (cortex, AD+31/AD, p-value 0.6549)?
The value was 0.98.

What about the “1-(1-enyl-stearoyl)-2-arachidonoyl-GPE (P-18:0/20:4)* Fold Change” value (cortex, AD+31/AD, p-value 0.6588) of the same compound?
The value was 1.01.

And the “mannose Fold Change” value (cortex, AD+31/AD, p-value 0.6613)?
Its value is 0.9.

What about the “UDP-galactose Fold Change” value (cortex, AD+31/AD, p-value 0.6737) of the same compound?
The value was 1.03.

What about the “phosphoethanolamine Fold Change” value (cortex, AD+31/AD, p-value 0.6749) of the same compound?
The value was 0.98.

And the “sphingomyelin (d18:1/18:1, d18:2/18:0) Fold Change” value (cortex, AD+31/AD, p-value 0.6798)?
The value was 1.03.

What about the “sedoheptulose-7-phosphate Fold Change” value (cortex, AD+31/AD, p-value 0.7025) of the same compound?
Its value is 0.98.

And the “1-stearoyl-GPC (18:0) Fold Change” value (cortex, AD+31/AD, p-value 0.7211)?
The value was 0.94.

And the “1-palmitoyl-2-oleoyl-GPS (16:0/18:1) Fold Change” value (cortex, AD+31/AD, p-value 0.7273)?
The value was 1.01.

And the “glucose 6-phosphate Fold Change” value (cortex, AD+31/AD, p-value 0.7454)?
Its value is 0.99.

And the “prolylglycine Fold Change” value (cortex, AD+31/AD, p-value 0.7821)?
The value was 0.99.

What about the “glycerophosphoethanolamine Fold Change” value (cortex, AD+31/AD, p-value 0.7927) of the same compound?
Its value is 1.02.

What about the “succinylcarnitine Fold Change” value (cortex, AD+31/AD, p-value 0.8024) of the same compound?
The value was 0.95.

What about the “glutamate Fold Change” value (cortex, AD+31/AD, p-value 0.8146) of the same compound?
The value was 0.99.

What about the “N-acetyl-glucosamine 1-phosphate Fold Change” value (cortex, AD+31/AD, p-value 0.868) of the same compound?
The value was 0.98.

And the “O-methyltyrosine Fold Change” value (cortex, AD+31/AD, p-value 0.8778)?
The value was 0.98.

And the “galactose 1-phosphate Fold Change” value (cortex, AD+31/AD, p-value 0.8947)?
The value was 1.05.

What about the “17-methylstearate Fold Change” value (cortex, AD+31/AD, p-value 0.9061) of the same compound?
The value was 1.

And the “1-stearoyl-2-oleoyl-GPI (18:0/18:1)* Fold Change” value (cortex, AD+31/AD, p-value 0.9089)?
Its value is 1.

What about the “lysine Fold Change” value (cortex, AD+31/AD, p-value 0.9193) of the same compound?
Its value is 1.

What about the “fructose-6-phosphate Fold Change” value (cortex, AD+31/AD, p-value 0.9322) of the same compound?
The value was 1.01.

What about the “coenzyme A Fold Change” value (cortex, AD+31/AD, p-value 0.937) of the same compound?
Its value is 1.03.

What about the “oleoyl-oleoyl-glycerol (18:1/18:1) [2]* Fold Change” value (cortex, AD+31/AD, p-value 0.9411) of the same compound?
Its value is 1.
